Where two headings read alike, the source gives them in different places.
Assays:
[1] = target: T1, peripheral type CCK receptors in rat pancreas (Rattus norvegicus, UniProt P30551); experiment: Binding to peripheral type CCK receptors in rat pancreas (3H-L364,718); conditions: read-out: Pancreas % inhibition in binding assay
T1 construct: from tissue; host or cells: pancreas membranes of male Sprague-Dawley rats
T1 sequence (P30551 1-444): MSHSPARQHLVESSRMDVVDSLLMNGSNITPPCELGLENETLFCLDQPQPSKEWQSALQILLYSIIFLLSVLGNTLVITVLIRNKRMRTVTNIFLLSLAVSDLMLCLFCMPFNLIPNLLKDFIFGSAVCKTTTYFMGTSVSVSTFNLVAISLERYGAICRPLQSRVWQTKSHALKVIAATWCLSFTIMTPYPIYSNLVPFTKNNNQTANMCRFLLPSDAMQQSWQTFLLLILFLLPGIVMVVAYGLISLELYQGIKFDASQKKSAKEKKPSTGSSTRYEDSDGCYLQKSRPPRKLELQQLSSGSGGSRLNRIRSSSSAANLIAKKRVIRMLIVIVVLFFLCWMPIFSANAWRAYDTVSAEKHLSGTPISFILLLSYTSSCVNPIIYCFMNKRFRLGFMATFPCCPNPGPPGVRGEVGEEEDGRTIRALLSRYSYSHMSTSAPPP
Method: Binding to peripheral type CCK receptors in rat pancreas was done according to the method of Chang et al. (Mol. Pharmacol. 30: 212-217, 1986) using ^3 H-L364, 718. Pancreas was obtained from male & Sprague-Dawley rats, 150-200 g, after decapitation, and dissected free from adipose and connective tissue. The tissue was homogenized in 30 volumes of 50 mM Tris buffer, pH 7.4 and centrifuged at 40,000 g for 10 min. The tissue pellet was washed by resuspension and centrifugation as described above. The final pellet was suspended in 500 volumes of assay buffer (50 mM Tris buffer, pH 7.4, 5 mM MgC2, 0.14 mg/ml bacitracin, and 5 mM dithiothreitol) to give a protein concentration of 30-60 μg/200 μl. Reagent volumes for the assay were the same as those used for CCK binding to brain membranes. […] The samples were incubated 1 hour at room temperature and then filtered as described for the CCK-brain receptor. Scintillation cocktail was added to the filters which were counted for radioactivity using a Micromedic Taurus automatic liquid scintillation counter.
Compound samples were prepared and IC-50 values were determined as described for the CCK-brain experiments. Non-specific binding was that amount left bound to the filters after adding 100 nM L-364,718.

Brain CCK receptor = target: T2, Brain CCK receptor (Mus musculus, UniProt P56481); experiment: Brain CCK receptor binding (mouse brain membranes, 125I-CCK-8 sulfate)
T2 construct: from tissue; host or cells: forebrain membranes of male CF-1 mice
T2 sequence (P56481 1-453): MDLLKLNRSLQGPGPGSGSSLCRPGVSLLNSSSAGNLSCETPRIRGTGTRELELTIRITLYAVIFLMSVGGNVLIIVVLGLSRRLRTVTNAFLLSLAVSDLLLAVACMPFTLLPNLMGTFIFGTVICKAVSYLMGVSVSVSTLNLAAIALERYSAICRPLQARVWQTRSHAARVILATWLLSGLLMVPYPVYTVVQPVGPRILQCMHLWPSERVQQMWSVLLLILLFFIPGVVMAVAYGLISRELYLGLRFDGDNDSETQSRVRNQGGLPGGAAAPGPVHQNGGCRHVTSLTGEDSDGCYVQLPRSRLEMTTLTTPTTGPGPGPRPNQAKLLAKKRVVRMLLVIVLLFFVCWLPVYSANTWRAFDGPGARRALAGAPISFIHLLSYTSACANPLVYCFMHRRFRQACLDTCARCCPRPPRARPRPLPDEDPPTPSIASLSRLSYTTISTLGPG
Method: Brain CCK receptor binding was performed using mouse brain membranes according to the method of Chang and Lotti (Proc. Natl. Acad. Sci. 83: 4923-4926, 1986). Male CF-1 mice, 23-25 g were sacrificed by cervical dislocation, the forebrain removed and placed in ice cold 50 mM Tris buffer, pH 7.4. The tissue was homogenized in 100 volumes of the Tris buffer with a Brinkman Polytron or Tekmar Tissumizer and then centrifuged at 40,000 g for 10 min. Pellets were resuspended in Tris buffer, centrifuged as above and then resuspended in 100 volumes of assay buffer, pH 6.5 (20 mM N-2-hydroxyethyl-piperazine-N'-2-ethane sulfonic acid (HEPES), 1 mM ethylene glycol bis(2-aminoethyl ether-N,N,N',N'-tetraaceticacid) (EGTA), 5 mM MgCl2, 130 mM NaCl, and 0.25 mg/ml bacitracin). The binding assay consisted of 50 μL of compound (or buffer for total binding), 50 μL of ^125 I-CCK-8 sulfate (20 pM) (Amersham IM-159), 200 μL of assay buffer and 200 μL of homogenate (80-120 μg protein). The samples were incubated at room temperature (25°) for 2 hours, and they were then filtered through GF/B glass fiber filters (soaked in wash buffer for 2 hours before use) using a 48 well Brandel cell harvester designed for receptor binding. The filters were washed twice with 3 ml of 50 mM Tris buffer, pH 7.4, containing 0.01% BSA and then counted for radioactivity in plastic tubes with a Micromedic 10/600 automatic gamma counter.
Compounds were dissolved in dimethyl sulfoxide (DMSO) at a concentration of 10 mM and then further diluted with assay buffer. […] IC-50 values of displacement curves were determined using 7 concentrations of compound and were calculated using the ALLFIT computer program of DeLean, Munson and Rodbard (Am. J. Physiol. 235: E97-E102, 1978). Non-specific binding was determined as the displacement of the radioligand by 100 nM CCK-8 sulfate.

[2] = mouse brain membranes, Mean ± SEM, n = 3, values without SEM n = 1, read-out: Brain IC50
[3] = read-out: Brain % inhibition in binding assay, mouse brain membranes

IC50 (Brain CCK receptor; [2]) [µM] | SMILES | further results
0.03 | CCc1cccc(-n2c(CCc3c[nH]c4ccc(Cl)cc34)nc3ccccc3c2=O)c1 [Example 30] | inhibition at 10 µM ([1]; rat pancreas, 10 μM): -9.1%
– | O=c1c2ccccc2nc(CCCc2c[nH]c3ccccc23)n1-c1ccccc1 [Example 62] | inhibition at 10 µM ([1]; rat pancreas, 10 μM): 11%; inhibition at 10 µM (Brain CCK receptor; [3]): 20%
0.031 ± 0.006 | COc1ccc(-n2c(CCc3c[nH]c4ccc(Br)cc34)nc3ccccc3c2=O)cc1 [Example 52] | inhibition at 10 µM ([1]; rat pancreas, 10 μM): 0.3%
– | CC(C)Oc1cccc(-n2c(CCc3c[nH]c4ccc(Br)cc34)nc3ccccc3c2=O)c1 [Example 4, 2-[2-(5-Bromoindol-3-yl)ethyl]-3-(3-isopropoxyphenyl)-4-quinazolinone] | inhibition at 10 µM ([1]; rat pancreas, 10 μM): -1.4%
0.022 | CCc1cccc(-n2c(CCc3c[nH]c4ccc(OC)cc34)nc3ccccc3c2=O)c1 [Example 31] | inhibition at 10 µM ([1]; rat pancreas, 10 μM): 11%
– | COc1cccc(-n2c(CCc3c[nH]c4ccc(Br)cc34)nc3ccccc3c2=O)c1 [Example 20] | inhibition at 10 µM ([1]; rat pancreas, 10 μM): 5.3%
0.034 ± 0.007 | CCOc1cccc(-n2c(CCc3c[nH]c4ccc(Br)cc34)nc3ccccc3c2=O)c1 [Example 23] | inhibition at 10 µM ([1]; rat pancreas, 10 μM): -14%
0.047 | CCN(CC)c1ccc(-n2c(CCc3c[nH]c4ccc(Br)cc34)nc3ccccc3c2=O)cc1 [Example 59] | –
0.019 | COc1ccc2[nH]cc(CCc3nc4ccccc4c(=O)n3-c3cccc(OC(C)C)c3)c2c1 [Example 27] | –
0.11 ± 0.01 | COc1cccc(-n2c(CCc3c[nH]c4ccc(F)cc34)nc3ccccc3c2=O)c1 [Example 18] | –
0.033 | CCOc1cccc(-n2c(CCc3c[nH]c4ccc(OC)cc34)nc3ccccc3c2=O)c1 [Example 24] | –
0.022 ± 0.003 | O=c1c2ccccc2nc(CCc2c[nH]c3ccc(Br)cc23)n1-c1cccc(N2CCCC2)c1 [Example 40] | –
– | COc1ccc(-n2c(CCc3c[nH]c4ccccc34)nc3ccccc3c2=O)cc1 [Example 51] | IC50 (Brain CCK receptor): 0.098 ± 0.007 µM
– | O=c1c2ccccc2nc(CCc2c[nH]c3ccccc23)n1-c1ccccc1Cl [Example 9] | inhibition at 10 µM (Brain CCK receptor; [3]): 44%
0.41 | COc1ccc2[nH]cc(CCc3nc4ccccc4c(=O)n3-c3ccccc3)c2c1 [Example 3, 2-[2-(5-methoxyindol-3-yl)-ethyl]-3-phenyl-4-(3H)quinazolinone] | –
0.067 ± 0.005 | COc1cccc(-n2c(CCc3c[nH]c4ccc(OC)cc34)nc3ccccc3c2=O)c1 [Example 22] | –
– | COc1cccc(-n2c(CC(c3ccccc3)c3c[nH]c4ccccc34)nc3ccccc3c2=O)c1 (centres unmarked) [Example 5, 2-[2-Phenyl-2-(3-indolyl)ethyl]-3-(3-methoxyphenyl)-4-(3H)quinazolinone] | inhibition at 1 µM (Brain CCK receptor; mouse brain membranes, 1 μM): 57%
0.11 ± 0.02 | CC(C)Oc1ccc(-n2c(CCc3c[nH]c4ccc(Br)cc34)nc3ccccc3c2=O)cc1 [Example 55] | –
– | COc1cccc(-n2c(CC(Cc3ccccc3)c3c[nH]c4ccccc34)nc3ccccc3c2=O)c1 (centres unmarked) [Example 65] | inhibition at 10 µM (Brain CCK receptor; mouse brain membranes, read-out: Brain % inhibition in binding assay): 70%
0.13 ± 0.03 | COc1ccc(-n2c(CCc3c[nH]c4ccc(Br)cc34)nc3ccccc3c2=O)cc1OC [Example 46] | –
0.065 | CCOc1ccc(-n2c(CCc3c[nH]c4ccc(Br)cc34)nc3ccccc3c2=O)cc1C [Example 44] | –
0.034 | COc1ccc2[nH]cc(CCc3nc4ccccc4c(=O)n3-c3cccc(SC)c3)c2c1 [Example 33] | –

SMILES | IC50 (Brain CCK receptor; [2]) [µM] | further results
O=c1c2ccccc2nc(CCc2c[nH]c3ccccc23)n1-c1cccc(Cl)c1 [Example 13] | 0.69 ± 0.16 | inhibition at 10 µM [1]: 17%
O=c1c2ccccc2nc(CCc2c[nH]c3ccccc23)n1-c1cccc(Br)c1 [Example 15] | 0.37 ± 0.03 | inhibition at 10 µM ([1]; rat pancreas, 10 μM): -5.7%
O=c1c2ccccc2nc(CCc2c[nH]c3ccc(Cl)cc23)n1-c1cccc(Br)c1 [Example 16] | 0.19 | inhibition at 10 µM ([1]; rat pancreas, 10 μM): 2%
O=c1c2ccccc2nc(CCc2c[nH]c3ccccc23)n1-c1ccccc1 [Example 1, 2-[2-(3-indolyl)ethyl]-3-phenyl-4-(3H)quinazolinone] | 0.67 ± 0.15 | inhibition at 10 µM [1]: 37%
COc1cccc(-n2c(CCc3c[nH]c4ccccc34)nc3ccccc3c2=O)c1 [Example 17] | 0.16 ± 0.03 | inhibition at 10 µM [1]: 16%
O=c1c2ccccc2nc(CCc2c[nH]c3ccccc23)n1-c1cccc(F)c1 [Example 12] | 0.73 ± 0.17 | inhibition at 10 µM [1]: 11%
CCc1cccc(-n2c(CCc3c[nH]c4ccccc34)nc3ccccc3c2=O)c1 [Example 28] | 0.072 ± 0.001 | inhibition at 10 µM [1]: 2.6%
Cc1cccc(-n2c(CCc3c[nH]c4ccccc34)nc3ccccc3c2=O)c1 [Example 14] | 0.15 ± 0.01 | inhibition at 10 µM [1]: 0.6%
O=c1c2ccccc2nc(CCc2c[nH]c3cc(Cl)ccc23)n1-c1ccccc1 [Example 7] | 1.1 | –
